This is an account of results in patent US11254663B2 (BRISTOL-MYERS SQUIBB COMPANY, priority 2019, dated 2022).

pEC50: −log10 of the molar value.

The target of this test is FXR (Homo sapiens (Human), UniProt Q96RI1). Kind of test: FXR EC50 (FXR agonist potency reported with each Example). In kind it is cell-based.
FXR, sequence (Q96RI1 262-486): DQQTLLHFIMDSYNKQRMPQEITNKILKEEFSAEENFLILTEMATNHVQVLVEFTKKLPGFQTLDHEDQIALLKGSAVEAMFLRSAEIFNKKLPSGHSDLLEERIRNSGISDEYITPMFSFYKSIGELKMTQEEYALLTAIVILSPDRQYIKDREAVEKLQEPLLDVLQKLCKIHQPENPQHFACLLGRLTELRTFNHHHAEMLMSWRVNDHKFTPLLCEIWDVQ

One may read the pEC50 as the negative decadic logarithm of the EC50, by convention in mol/L. A low value points to a high EC50. Turning to `CC1(NC(=O)N(CC23CCC(c4nc(C5CC5)no4)(CC2)CC3)c2cccc(-c3nc(C4CC4)no3)c2)CC1` [Example 94, 1-((4-(3-cyclopropyl-1,2,4-oxadiazol-5-yl)bicyclo[2.2.2]octan-1-yl)methyl)-1-(3-(3-cyclopropyl-1,2,4-oxadiazol-5-yl)phenyl)-3-(1-methylcyclopropyl)urea], the pEC50 was 6.58.
The value for `CCOC(=O)c1nc(-c2cccc(N(CC34CCC(c5nc(C6CC6)no5)(CC3)CC4)C(=O)C34CC(F)(C3)C4)c2)cs1` [Example 29, Ethyl 4-(3-(N-((4-(3-cyclopropyl-1,2,4-oxadiazol-5-yl)bicyclo[2.2.2]octan-1-yl)methyl)-3-fluorobicyclo[1.1.1]pentane-1-carboxamido)phenyl)thiazole-2-carboxylate] was 5.96; that for `O=C(N(CC12CCC(c3noc(C4CC4)n3)(CC1)CC2)c1cccc(-c2nc(C3CC3)no2)c1)C12CC(F)(C1)C2` [Example 116, N-((4-(5-cyclopropyl-1,2,4-oxadiazol-3-yl)bicyclo[2.2.2]octan-1-yl)methyl)-N-(3-(3-cyclopropyl-1,2,4-oxadiazol-5-yl)phenyl)-3-fluorobicyclo[1.1.1]pentane-1-carboxamide] was 6.93.
As for `O=C(N(CC12CCC(c3nc(C4CC4)no3)(CC1)CC2)c1cccc(-c2noc(C(F)F)n2)c1)C12CC(F)(C1)C2` [Example 105, N-((4-(3-cyclopropyl-1,2,4-oxadiazol-5-yl)bicyclo[2.2.2]octan-1-yl)methyl)-N-(3-(5-(difluoromethyl)-1,2,4-oxadiazol-3-yl)phenyl)-3-fluorobicyclo[1.1.1]pentane-1-carboxamide], the figure is 7.24; as for `CC(C)c1nc(-c2cccc(N(CC34CCC(c5cc(C6CC6)n(C)n5)(CC3)CC4)C(=O)C34CC(F)(C3)C4)c2)no1` [Example 169, N-((4-(5-cyclopropyl-1-methyl-1H-pyrazol-3-yl)bicyclo[2.2.2]octan-1-yl)methyl)-3-fluoro-N-(3-(5-isopropyl-1,2,4-oxadiazol-3-yl)phenyl)bicyclo[1.1.1]pentane-1-carboxamide], 7.01; as for `CO[C@H]1C[C@@H](C(=O)N(CC23CCC(c4nc(C(C)(C)C)no4)(CC2)CC3)c2cccc(-c3nc(C4CC4)no3)c2)C1` [Example 192, (1S,3S)—N-((4-(3-(tert-butyl)-1,2,4-oxadiazol-5-yl)bicyclo[2.2.2]octan-1-yl)methyl)-N-(3-(3-cyclopropyl-1,2,4-oxadiazol-5-yl)phenyl)-3-methoxycyclobutane-1-carboxamide], 6.35.
Regarding `CC(C)(C)c1nc(-c2cccc(N(CC34CCC(c5cnc(C(F)(F)F)nc5)(CC3)OC4)C(=O)C34CC(F)(C3)C4)c2)no1` [Example 181, N-(3-(5-(tert-butyl)-1,2,4-oxadiazol-3-yl)phenyl)-3-fluoro-N-((1-(2-(trifluoromethyl)pyrimidin-5-yl)-2-oxabicyclo[2.2.2]octan-4-yl)methyl)bicyclo[1.1.1]pentane-1-carboxamide], the pEC50 was 6.08.
`Cn1nc(C23CCC(CN(C(=O)C4CC(F)(F)C4)c4cccc(-c5nc(C6CC6)no5)c4)(CC2)CC3)cc1C1CC1` [Example 125, N-(3-(3-cyclopropyl-1,2,4-oxadiazol-5-yl)phenyl)-N-((4-(5-cyclopropyl-1-methyl-1H-pyrazol-3-yl)bicyclo[2.2.2]octan-1-yl)methyl)-3,3-difluorocyclobutane-1-carboxamide] had a negative logarithm of the EC50 (pEC50) of 6.32.
As for `COc1nccc(C23CCC(CN(C(=O)C45CC(F)(C4)C5)c4cccc(-c5nc(C6CC6)no5)c4)(CC2)CC3)n1` [Example 148, N-(3-(3-cyclopropyl-1,2,4-oxadiazol-5-yl)phenyl)-3-fluoro-N-((4-(2-methoxypyrimidin-4-yl)bicyclo[2.2.2]octan-1-yl)methyl)bicyclo[1.1.1]pentane-1-carboxamide], the figure is 6.16.
In turn, `O=C(C1CCC(F)(F)C1)N(CC12CCC(c3nc(C4CC4)no3)(CC1)OC2)c1cccc(-c2cc(C3CC3)on2)c1` (centres unmarked) [Example 202, N-((1-(3-cyclopropyl-1,2,4-oxadiazol-5-yl)-2-oxabicyclo[2.2.2]octan-4-yl)methyl)-N-(3-(5-cyclopropylisoxazol-3-yl)phenyl)-3,3-difluorocyclopentane-1-carboxamide] had a negative-log EC50 (pEC50) of 6.52.
The value for `COCc1coc(-c2cccc(N(CC34CCC(c5nc(C6CC6)no5)(CC3)CC4)C(=O)C3CC(F)(F)C3)c2)n1` [Example 84, N-((4-(3-cyclopropyl-1,2,4-oxadiazol-5-yl)bicyclo[2.2.2]octan-1-yl)methyl)-3,3-difluoro-N-(3-(4-(methoxymethyl)oxazol-2-yl)phenyl)cyclobutane-1-carboxamide] was 6.02.
The value for `O=C(C1CC(C(F)F)C1)N(CC12CCC(c3nnc(C4CC4)o3)(CC1)CC2)c1cccc(-c2nc(C3CC3)no2)c1` (centres unmarked) [Example 139, N-(3-(3-cyclopropyl-1,2,4-oxadiazol-5-yl)phenyl)-N-((4-(5-cyclopropyl-1,3,4-oxadiazol-2-yl)bicyclo[2.2.2]octan-1-yl)methyl)-3-(difluoromethyl)cyclobutane-1-carboxamide] was 6.42; that for `O=C(N(CC12CCC(c3nc(C4CC4)no3)(CC1)CC2)c1cccc(-c2cnn(C(F)F)c2)c1)C12CC(F)(C1)C2` [Example 160, N-((4-(3-cyclopropyl-1,2,4-oxadiazol-5-yl)bicyclo[2.2.2]octan-1-yl)methyl)-N-(3-(1-(difluoromethyl)-1H-pyrazol-4-yl)phenyl)-3-fluorobicyclo[1.1.1]pentane-1-carboxamide] was 7.37; that for `O=C(N(CC12CCC(c3nc(C4CC4)no3)(CC1)CC2)c1cccc(-c2noc(C3CC(F)(F)C3)n2)c1)C12CC(F)(C1)C2` [Example 103, N-((4-(3-cyclopropyl-1,2,4-oxadiazol-5-yl)bicyclo[2.2.2]octan-1-yl)methyl)-N-(3-(5-(3,3-difluorocyclobutyl)-1,2,4-oxadiazol-3-yl)phenyl)-3-fluorobicyclo[1.1.1]pentane-1-carboxamide] was 6.64.
On to `Cc1cnc(C23CCC(CN(c4cccc(-c5nc(C(F)F)co5)c4)C(=O)[C@H]4C[C@](O)(C(F)(F)F)C4)(CC2)CC3)o1` [Example 46, (cis)-N-(3-(4-(difluoromethyl)oxazol-2-yl)phenyl)-3-hydroxy-N-((4-(5-methyloxazol-2-yl)bicyclo[2.2.2]octan-1-yl)methyl)-3-(trifluoromethyl)cyclobutane-1-carboxamide], for which the negative-log EC50 (pEC50) is 6.36.
Turning to `CCc1noc(-c2cccc(N(CC34CCC(c5ccc(C(C)(C)C#N)cc5)(CC3)OC4)C(=O)C3CCC3)c2)n1` [Example 48, N-((1-(4-(2-cyanopropan-2-yl)phenyl)-2-oxabicyclo[2.2.2]octan-4-yl)methyl)-N-(3-(3-ethyl-1,2,4-oxadiazol-5-yl)phenyl)cyclobutanecarboxamide], the negative-log EC50 (pEC50) was 6.52.
In turn, `O=C(N(CC12CCC(c3nc(C4CC4)no3)(CC1)CC2)c1cccc(-c2cnn(S(=O)(=O)C3CC3)c2)c1)C12CC(F)(C1)C2` [Example 158, N-((4-(3-cyclopropyl-1,2,4-oxadiazol-5-yl)bicyclo[2.2.2]octan-1-yl)methyl)-N-(3-(1-(cyclopropylsulfonyl)-1H-pyrazol-4-yl)phenyl)-3-fluorobicyclo[1.1.1]pentane-1-carboxamide] showed a negative-log EC50 (pEC50) of 7.37.
For `O=C(N(CC12CCC(c3noc(C45CC(F)(C4)C5)n3)(CC1)CC2)c1cccc(-c2nc(C3CC3)no2)c1)C12CC(F)(C1)C2` [Example 114, N-(3-(3-cyclopropyl-1,2,4-oxadiazol-5-yl)phenyl)-3-fluoro-N-((4-(5-(3-fluorobicyclo[1.1.1]pentan-1-yl)-1,2,4-oxadiazol-3-yl)bicyclo[2.2.2]octan-1-yl)methyl)bicyclo[1.1.1]pentane-1-carboxamide], the negative logarithm of the EC50 (pEC50) is 6.75.
Take `O=C([C@H]1C[C@](O)(C(F)(F)F)C1)N(CC12CCC(c3nc(C4CC4)no3)(CC1)CC2)c1cccc(-c2nc(C(F)F)co2)c1` [Example 42, (1s, 3s)-N-((4-(3-cyclopropyl-1,2,4-oxadiazol-5-yl)bicyclo[2.2.2]octan-1-yl)methyl)-N-(3-(4-(difluoromethyl)oxazol-2-yl)phenyl)-3-hydroxy-3-(trifluoromethyl)cyclobutane-1-carboxamide]: the pEC50 is 6.21.
As for `O=C(C1CCC(F)(F)C1)N(CC12CCC(c3nc(C4CC4)no3)(CC1)CC2)c1cccc(-c2nc(CC3CC3)no2)c1` (centres unmarked) [Example 67, N-((4-(3-cyclopropyl-1,2,4-oxadiazol-5-yl)bicyclo[2.2.2]octan-1-yl)methyl)-N-(3-(3-(cyclopropylmethyl)-1,2,4-oxadiazol-5-yl)phenyl)-3,3-difluorocyclopentane-1-carboxamide], the figure is 6.69; as for `COc1ncc(C23CCC(CN(C(=O)C45CC(F)(C4)C5)c4cccc(-c5nc(C6CC6)no5)c4)(CC2)CO3)cn1` [Example 140, N-(3-(3-Cyclopropyl-1,2,4-oxadiazol-5-yl)phenyl)-3-fluoro-N-((1-(2-methoxypyrimidin-5-yl)-2-oxabicyclo[2.2.2]octan-4-yl)methyl)bicyclo[1.1.1]pentane-1-carboxamide], 6.24.
Take `CC1(c2nc(-c3cccc(N(CC45CCC(c6nc(C(F)F)no6)(CC4)CC5)C(=O)C45CC(F)(C4)C5)c3)no2)COC1` [Example 173, N-((4-(3-(difluoromethyl)-1,2,4-oxadiazol-5-yl)bicyclo[2.2.2]octan-1-yl)methyl)-3-fluoro-N-(3-(5-(3-methyloxetan-3-yl)-1,2,4-oxadiazol-3-yl)phenyl)bicyclo[1.1.1]pentane-1-carboxamide]: the pEC50 was 6.86. This pEC50 lies 0.62 log units higher than the previous one.
`CC1(C(=O)N(CC23CCC(c4nc(C(C)(C)C)no4)(CC2)CC3)c2cccc(-c3nc(C4CC4)no3)c2)COC1` [Example 191, N-((4-(3-(tert-butyl)-1,2,4-oxadiazol-5-yl)bicyclo[2.2.2]octan-1-yl)methyl)-N-(3-(3-cyclopropyl-1,2,4-oxadiazol-5-yl)phenyl)-3-methyloxetane-3-carboxamide]: the pEC50 was 6.08.
